The text below walks through data of patent EP0453621A1, “Polymer-modified drugs having enhanced biological and pharmacological activities” (W.R. Grace & Co.-Conn., priority 1990, dated 1991).

Ends that are not written are not given here. Peptide text beside a SMILES is read from it.

The nature of series [1]: Circulatory half-life of radioiodinated peptide or conjugate after tail vein injection. The format is in vivo, C57B1/6 mice. The note with it: i.v. tail vein. The protocol: The conjugate from Example XIII was passed over a disposable Sephadex G25 column (PD10 from Pharmacia, Inc.) to separate free from polymer-bound peptide. Confirmation of the purity of the conjugate was obtained by HPLC. About 45 µg of conjugate (based on peptide) were radiolabeled with 125-iodine using the well known chloramine-T procedure. Free 125-iodine was separated from radiolabeled conjugate using a PD10 column. Of the original 30 µCi of Na¹²⁵I used for the iodination, more than 23 µCi were incorporated into the conjugate.
Portions of the radiolabeled YRGDS-Prepolymer A conjugate from Example XIV were injected into the tail veins of C57B1/6 mice. As a control, YRGDS free peptide was radioiodinated by the procedure described in Example XIV and also injected. At various times blood was withdrawn from the animals and the amount of radioiodine remaining in the circulation determined using a gamma counter. A biphasic clearance curve (α:β) was obtained for both species. […] Thus by coupling the peptide to this polymer its clearance rate from the circulation is markedly extended.

A further series concerns B16 cell. The series is described as follows: Inhibition of B16 cell spreading on a plate coated with fibronectin. The note with it: the conjugate value is based on octapeptide, read-out: concentration for 50% inhibition of cell spreading. How it is done:
The biological activity of the conjugate formed in Example XV was determined in an assay which measures inhibition of B16 cell spreading on a plate coated with fibronectin.

In series [1] (first phase of biphasic clearance), `N=C(N)NCCC[C@H](NC(=O)[C@@H](N)Cc1ccc(O)cc1)C(=O)NCC(=O)N[C@@H](CC(=O)O)C(=O)N[C@@H](CO)C(=O)O` [YRGDS, tyr-arg-gly-asp-ser] (H-YRGDS-OH) gave a t½α of 30 s. Further, the “label cleared in initial phase” value in series [1] (in one minute, 125-iodine label) is given as “about 75%”.

With “GRGDSPAC-Prepolymer A conjugate: peptide gly-arg-gly-asp-ser-pro-ala-cys (SEQ. ID No. 3) conjugated with Prepolymer A (also: conjugated with Prepolymer A, site not given here)”, the IC50 in the series on B16 cell is 340 µM.
